According to ChEMBL document CHEMBL6074647, “Design, synthesis and antitumor activity of novel 4-oxobutanamide derivatives” (Bioorg Med Chem Lett, 2024):

Legend:
MDA-MB-231 = assay: Antiproliferative activity against human MDA-MB-231 cells assessed as reduction in cell viability by MTT assay; type: functional, cell-based
HeLa [1] = assay: Antiproliferative activity against human HeLa cells assessed as reduction in cell viability by MTT assay; type: functional, cell-based
A498 [2] = assay: Antiproliferative activity against human A498 cells assessed as reduction in cell viability by MTT assay; type: functional, cell-based
A2780 = assay: Antitumor activity against human A2780 cells; type: functional, cell-based
PANC-1 = assay: Antitumor activity against human PANC-1 cells; type: functional, cell-based
SMMC-7721 = assay: Antitumor activity against human […] cells; type: functional, cell-based
HeLa [3] = assay: Antiproliferative activity against human HeLa cells assessed as inhibition of cell growth; type: functional, cell-based
NCI-H460 = assay: Antiproliferative activity against human NCI-H460 cells assessed as inhibition of cell growth; type: functional, cell-based
A498 [4] = assay: Inhibition of colony formation in human A498 cells assessed as proliferative capacity at 4 uM; type: functional; parameters: scale not given: the % may be the effect or the level left
A498 [5] = assay: Inhibition of colony formation in human A498 cells assessed as proliferative capacity at 1 uM; type: functional; parameters: scale not given: the % may be the effect or the level left
A498 [6] = assay: Inhibition of cell invasion in human A498 cells assessed as decrease in cell density invading the bottom surface of the membrane at 2 uM by Transwell assay; type: functional, cell-based
A498 [7] = assay: Antitumor activity against human A498 cells xenografted in chicken embryo chorioallantoic membrane assessed as decrease in tumor weight at 4 uM; type: functional, cell-based
A498 [8] = assay: Inhibition of colony formation in human A498 cells assessed as proliferative capacity at 2 uM; type: functional; parameters: scale not given: the % may be the effect or the level left
A498 [9] = assay: Anti-angiogenesis activity against human A498 cells xenografted in chicken embryo chorioallantoic membrane assessed as CAM blood vessel growth at 4 uM; type: functional
A498 [10] = assay: Anti-angiogenesis activity against human A498 cells xenografted in chicken embryo chorioallantoic membrane assessed as CAM blood vessel growth at 1 uM; type: functional
A498 [11] = assay: Inhibition of cell adhesion in human A498 cells; type: functional, cell-based; conditions: dose 1-4 µM
A498 [12] = assay: Inhibition of cell invasion in human A498 cells assessed as decrease in cell density invading the bottom surface of the membrane by Transwell assay; type: functional, cell-based; conditions: dose 1-4 µM
A498 [13] = assay: Inhibition of cell adhesion in human A498 cells at 4 uM; type: functional, cell-based
A498 [14] = assay: Anti-angiogenesis activity against human A498 cells xenografted in chicken embryo chorioallantoic membrane assessed as CAM blood vessel growth at 2 uM; type: functional
A498 [15] = assay: Antitumor activity against human A498 cells xenografted in chicken embryo chorioallantoic membrane assessed as decrease in tumor weight; type: functional, cell-based; conditions: dose 1-4 µM

Row | Structure (SMILES) | IC50 (MDA-MB-231) | IC50 (HeLa [1]) | IC50 (A498 [2]) | also measured
1 | COc1cc2c(c(OC)c1OC)-c1ccc(OC)c(=O)cc1[C@@H](NC(C)=O)CC2 [COLCHICINE] | > 100 µM | 32.7 µM | 7.17 µM | 
2 | COc1ccc(CN(C(=O)CCC(=O)Nc2cccc(Cl)c2)c2cc(OC)c(OC)c(OC)c2)cc1 | 48.3 µM | 20.4 µM | 10.7 µM | 
3 | COc1ccc(CCc2cc(OC)c(OC)c(OC)c2)cc1O |  |  |  | IC50 (A2780): 0.42 µM; IC50 (PANC-1): 0.45 µM; IC50 (SMMC-7721): 0.29 µM
4 | COc1ccc(N(C)c2nc(C)nc3ccccc23)cc1NC(=O)CCC(=O)NO |  |  |  | IC50 (HeLa [3]): 2.41 µM; IC50 (NCI-H460): 1.05 µM
5 | COc1ccc(CN(C(=O)CCC(=O)Nc2cccc(F)c2)c2cc(OC)c(OC)c(OC)c2)cc1 | 56.2 µM | 39.8 µM | 11.9 µM | 
6 | COc1ccc(CN(C(=O)CCC(=O)Nc2ccc(C)cc2)c2cc(OC)c(OC)c(OC)c2)cc1 | 8.08 µM | > 100 µM | 5.34 µM | 
7 | COc1ccc(CN(C(=O)CCC(=O)Nc2ccccc2)c2cc(OC)c(OC)c(OC)c2)cc1 | 16.1 µM | 16 µM | 2.11 µM | 
8 | COc1ccc(CN(C(=O)C(=O)Nc2ccc(Cl)cc2)c2cc(OC)c(OC)c(OC)c2)cc1 | 40.7 µM |  |  | 
9 | COc1ccc(CN(C(=O)CCC(=O)Nc2ccccc2Cl)c2cc(OC)c(OC)c(OC)c2)cc1 | 73 µM | 41.9 µM | 5.58 µM | 
10 | COc1ccc(CN(C(=O)CCC(=O)Nc2cc(OC)c(OC)c(OC)c2)c2cc(OC)c(OC)c(OC)c2)cc1 | > 100 µM | 57.5 µM | > 100 µM | 
11 | COc1ccc(CN(C(=O)CCC(=O)Nc2ccccc2OC)c2cc(OC)c(OC)c(OC)c2)cc1 | 74.4 µM | 48.3 µM | 5.81 µM | 

Continued, in another order:

Row | IC50 (MDA-MB-231) | IC50 (HeLa [1]) | Structure (SMILES) | IC50 (A498 [2]) | also measured
12 | 58.6 µM | 20.8 µM | COc1ccc(CN(C(=O)CCC(=O)Nc2ccc(Br)cc2)c2cc(OC)c(OC)c(OC)c2)cc1 | 5.4 µM | 
13 | 16.6 µM | 19.2 µM | COc1ccc(CN(C(=O)CCC(=O)Nc2cccc(C)c2)c2cc(OC)c(OC)c(OC)c2)cc1 | 8.85 µM | 
14 | 22.5 µM | 13.8 µM | COc1ccc(CN(C(=O)CCC(=O)Nc2ccc(Cl)cc2)c2cc(OC)c(OC)c(OC)c2)cc1 | 11.5 µM | 
15 | 55.9 µM |  | COc1ccc(CN(C(=O)C(=O)Nc2ccc(C)cc2)c2cc(OC)c(OC)c(OC)c2)cc1 |  | 
16 | 23.5 µM | 11.8 µM | COc1ccc(CN(C(=O)CCC(=O)Nc2ccc(O)cc2)c2cc(OC)c(OC)c(OC)c2)cc1 | 3.23 µM | 
17 | 31.4 µM | 21.3 µM | CC(=O)O[C@H]1C(=O)[C@@]2(C)[C@H]([C@H](OC(=O)c3ccccc3)[C@]3(O)C[C@H](OC(=O)[C@H](O)[C@@H](NC(=O)c4ccccc4)c4ccccc4)C(C)=C1C3(C)C)[C@]1(OC(C)=O)CO[C@@H]1C[C@@H]2O [PACLITAXEL] |  | 
18 | 24 µM | 2.39 µM | COc1ccc(CN(C(=O)CCC(=O)Nc2ccc(F)cc2)c2cc(OC)c(OC)c(OC)c2)cc1 | 4.06 µM | 
19 | 21.4 µM | 12 µM | COc1ccc(CN(C(=O)CCC(=O)Nc2cccc(OC)c2)c2cc(OC)c(OC)c(OC)c2)cc1 | 8.27 µM | 
20 | 31.5 µM | 8.24 µM | COc1ccc(CN(C(=O)CCC(=O)Nc2ccc(OC)cc2)c2cc(OC)c(OC)c(OC)c2)cc1 | 1.94 µM | Activity (A498 [4]): 11.16%; Activity (A498 [5]): 66.94%; inhibition (A498 [6]): Active; Better Activity Compared To 4 Um Positive Control, Paclitaxel And Colchicine; Activity (A498 [7]): Active; Better Activity Compared To Positive Control, Paclitaxel And Colchicine; Activity (A498 [8]): 26.03%; Activity (A498 [9]): 42.04%; Activity (A498 [10]): 82.4%; inhibition (A498 [11]): Dose-dependent-effect; inhibition (A498 [12]): Dose-dependent-effect; inhibition (A498 [13]): Active; Better Activity Compared To Positive Control, Paclitaxel And Colchicine; Activity (A498 [14]): 66.22%; Activity (A498 [15]): Dose-dependent-effect
21 | > 100 µM | 4.65 µM | COc1ccc(CN(C(=O)CCC(=O)Nc2ccc(C(F)(F)F)cc2)c2cc(OC)c(OC)c(OC)c2)cc1 | > 100 µM | 
